Source: US20100323012A1, “Pharmaceutical Compositions Comprising NEP-Inhibitors, Inhibitors of the Endogenous Endothelin Producing System and Diuretics” (Solvay Pharmaceuticals GmbH, priority 2005, published 2010)

System: spontaneously hypertensive rat
Test: Telemetric monitoring of blood pressure and heart rate in spontaneously hypertensive rats, compounds given via drinking water
Assay type: in vivo
Conditions: male SHR; for effect on blood pressure (in words): 3 weeks of treatment via drinking water; for DBP (diastolic blood pressure), effect in relation to baseline, group mean of 24 hour means / HR (heart rate), effect in relation to baseline, group mean of 24 hour means / SBP (systolic blood pressure), effect in relation to baseline, group mean of 24 hour means: day 23 (after 3 weeks of treatment) minus baseline (day 3), via drinking water, intended 10 mg/kg/day hydrochlorothiazide, 100 mg/kg/day daglutril, n = 5 per group
From the text: Male spontaneously hypertensive rats (=SHR, insulin resistant strain from Charles River; aged 6 months) were equipped with telemetry transmitters for continuous monitoring of blood pressure and heart rate (TA11PA-C40, DSI, USA). Telemetry transmitters for continuous monitoring of blood pressure, heart rate and locomotor activity (TA11PA-C40, Data Sciences, USA) were implanted intraabdominally under inhalative halothane anesthesia. A midline abdominal incision was made, and the abdominal aorta was visualized by removal of retroperitoneal fat and connective tissue. A ligature was placed caudal of the renal arteries, the aorta was punctured with a 22G needle, and the catheter was advanced into the aorta. The entry point was sealed with tissue adhesive (Vetbond, 3M, USA), the ligature was removed, and the abdominal incision was closed. Measurements of aortic pressure were taken every 5 minutes (=min) for 4 seconds (=s) each at a sampling rate of 500 Hz, and were corrected for the corresponding ambient pressure (ambient pressure monitor, C11PR, Data Sciences, USA).
After 3 days of monitoring under baseline (untreated) conditions, animals received daglutril via their drinking water. The intended daily dose was 100 mg/kg/day of daglutril. The concentration in drinking water was adjusted once per week, resulting in an average drug intake of 98 mg/kg/day.
In a second experiment, rats were divided into two treatment groups receiving hydrochlorothiazide or hydrochlorothiazide+daglutril. Compounds were administered via the drinking water, and daily drug intake was measured by weighing the water bottles thrice weekly. Intended daily doses were 10 mg/kg/day of hydrochlorothiazide plus, in the combination group, 100 mg/kg/day of daglutril.
Concentrations of hydrochlorothiazide and daglutril in the drinking water were adjusted once per week, in order to ensure the intended daily intake of 10 and 100 mg/kg, respectively. The average daily water intake amounted to 57 and 46 ml/kg in the hydrochlorothiazide and hydrochlorothiazide+daglutril group, respectively, resulting in the uptake of 9.5 mg/kg/day of hydrochlorothiazide in the hydrochlorothiazide group, and 9.4 mg/kg/day of hydrochlorothiazide and 94.4 mg/kg/day of daglutril in the combination group.
The blood pressure, heart rate and activity values, sampled in 5 min intervals by the Dataquest™ system, were used for calculation of individual 24 hour means. These 24 hour means were exported to Excel, and group mean values of systolic blood pressure (=SBP), diastolic blood pressure (=DBP), heart rate (=HR), and locomotor activity (=ACT) were calculated for the daglutril, hydrochlorothiazide and the hydrochlorothiazide+daglutril groups. For the statistical analysis, a baseline value (pre) was calculated from the last day prior to compound application (day 3), and effects of daglutril, hydrochlorothiazide and hydrochlorothiazide+daglutril were calculated in relation to this baseline value (day 23, i.e. after 3 weeks of treatment, minus baseline value). The statistical comparison was done by using univariate ANOVA at an error level of P<0.05.

For `CCOC(=O)C(CCc1ccccc1)CC1(C(=O)NC2CCc3ccccc3N(CC(=O)O)C2=O)CCCC1` (centres unmarked) [daglutril, 2-[1-(1-carboxymethyl-2-oxo-2,3,4,5-tetrahydro-1H-benzo[b]azepin-3-ylcarbamoyI)-cyclopentylmethyl]-4-phenyl-butyric acid ethyl ester], the “effect on blood pressure (in words)” value was “no effect”, the “DBP (diastolic blood pressure), effect in relation to baseline, group mean of 24 hour means” value was 2.0 mmHg and the “HR (heart rate), effect in relation to baseline, group mean of 24 hour means” value was -6.0 min⁻¹. The “SBP (systolic blood pressure), effect in relation to baseline, group mean of 24 hour means” value was −0.3 mmHg.

`NS(=O)(=O)c1cc2c(cc1Cl)NCNS2(=O)=O` [HCTZ, hydrochlorothiazide] was tested, and the “effect on blood pressure (in words)” value was “moderate decrease”, the “DBP (diastolic blood pressure), effect in relation to baseline, group mean of 24 hour means” value was −7.7 mmHg and the “HR (heart rate), effect in relation to baseline, group mean of 24 hour means” value was -4.5 min⁻¹. The “SBP (systolic blood pressure), effect in relation to baseline, group mean of 24 hour means” value was −11.3 mmHg.
